Reference: US20080200454A1, “CARBON-LINKED TETRAHYDRO-PYRAZOLO-PYRIDINE MODULATORS OF CATHEPSIN S” (priority 2007, published 2008)
pIC50: −log10 of the molar value. Read-outs that look alike come from different tables or passages of the source.

Target: Recombinant human cathepsin S (CatS) (Homo sapiens, UniProt P25774)
Assay: Recombinant human cathepsin S (CatS) inhibition assay, fluorogenic substrate Z-Valine-Valine-Arginine-AMC;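 also: Baculovirus-expressed CatS in pH 5.0 sodium acetate buffer with DTT and NaCl, fluorescence read each minute over 20 min, inhibition derived from rate slope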

Chain of Recombinant human cathepsin S (CatS) (P25774 115-331): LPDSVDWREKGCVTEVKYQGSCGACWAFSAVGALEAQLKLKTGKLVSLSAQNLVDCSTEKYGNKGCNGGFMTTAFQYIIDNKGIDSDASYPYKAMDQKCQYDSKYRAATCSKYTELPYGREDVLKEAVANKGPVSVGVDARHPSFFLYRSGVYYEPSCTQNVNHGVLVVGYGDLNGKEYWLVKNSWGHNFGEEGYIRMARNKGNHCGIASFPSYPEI

pIC50	Structure (SMILES)	pIC50 (CatS IC50)
6.70	CS(=O)(=O)N1CCc2c(c(-c3ccc(Cl)c(C#Cc4ccc(CN[C@@H]5Cc6ccccc6[C@@H]5O)cc4)c3)nn2CCCN2CCOCC2)C1 [Example 445, (1S,2R)-2-({[4-({2-Chloro-5-[5-(methylsulfonyl)-1-(3-morpholin-4-ylpropyl)-4,5,6,7-tetrahydro-1H-pyrazolo[4,3-c]pyridin-3-yl]phenyl}ethynyl)phenyl]methyl}amino)-2,3-dihydro-1H-inden-1-ol]	
	CS(=O)(=O)N1CCc2c(c(-c3ccc(Cl)c(C#Cc4cccc(CNCc5ccc(Cl)cc5)c4)c3)nn2CCCN2CCN(c3ccccc3)CC2)C1 [Example 446, 1-{3-[(2-Chloro-5-{5-(methylsulfonyl)-1-[3-(4-phenylpiperazin-1-yl)propyl]-4,5,6,7-tetrahydro-1H-pyrazolo[4,3-c]pyridin-3-yl}phenyl)ethynyl]phenyl}-N-[(4-chlorophenyl)methyl]methanamine]	7.15
	CS(=O)(=O)N1CCc2c(c(-c3ccc(Cl)c(C#Cc4cccc(CNCc5ccc(Cl)cc5)c4)c3)nn2CCCN2CCN(c3ccccn3)CC2)C1 [Example 447, 1-{3-[(2-Chloro-5-{5-(methylsulfonyl)-1-[3-(4-pyridin-2-ylpiperazin-1-yl)propyl]-4,5,6,7-tetrahydro-1H-pyrazolo[4,3-c]pyridin-3-yl}phenyl)ethynyl]phenyl}-N-[(4-chlorophenyl)methyl]methanamine]	7.15
8.00	CS(=O)(=O)N1CCc2c(c(-c3ccc(Cl)c(C#Cc4ccc(Cl)cc4)c3)nn2C[C@@H](O)CN2CCC(C3CCNCC3)CC2)C1 [Example 448, (2S)-1-(4,4′-Bipiperidin-1-yl)-3-[3-{4-chloro-3-[(4-chlorophenyl)ethynyl]phenyl}-5-(methylsulfonyl)-4,5,6,7-tetrahydro-1H-pyrazolo[4,3-c]pyridin-1-yl]propan-2-ol]	
7.00	NC(=O)C(=O)N1CCc2c(c(-c3ccc(Cl)c(C#Cc4ccc(CNCc5ccc(Cl)cc5)cc4)c3)nn2CCCN2CCCCC2)C1 [Example 449, 2-[3-(4-Chloro-3-{[4-({[(4-chlorophenyl)methyl]amino}methyl)phenyl]ethynyl}phenyl)-1-(3-piperidin-1-ylpropyl)-1,4,6,7-tetrahydro-5H-pyrazolo[4,3-c]pyridin-5-yl]-2-oxoacetamide]	
	NC(=O)C(=O)N1CCc2c(c(-c3ccc(Cl)c(C#Cc4ccc(CNCc5ccc(Cl)cc5)cc4)c3)nn2CCCN2CCC(C(N)=O)CC2)C1 [Example 450, 1-(3-{5-[Amino(oxo)acetyl]-3-(4-chloro-3-{[4-({[(4-chlorophenyl)methyl]amino}methyl)phenyl]ethynyl}phenyl)-4,5,6,7-tetrahydro-1H-pyrazolo[4,3-c]pyridin-1-yl}propyl)piperidine-4-carboxamide]	7.15
	NC(=O)C(=O)N1CCc2c(c(-c3ccc(Cl)c(C#Cc4ccc(CNCc5ccc(Cl)cc5)cc4)c3)nn2CCCN2CCC3(CC2)OCCO3)C1 [Example 451, 2-{3-(4-Chloro-3-{[4-({[(4-chlorophenyl)methyl]amino}methyl)phenyl]ethynyl}phenyl)-1-[3-(1,4-dioxa-8-azaspiro[4.5]dec-8-yl)propyl]-1,4,6,7-tetrahydro-5H-pyrazolo[4,3-c]pyridin-5-yl}-2-oxoacetamide]	7.00
7.00	NC(=O)C(=O)N1CCc2c(c(-c3ccc(Cl)c(C#Cc4ccc(CNCc5ccc(Cl)cc5)cc4)c3)nn2CCCN2CCC(C(F)(F)F)CC2)C1 [Example 452, 2-[3-(4-Chloro-3-{[4-({[(4-chlorophenyl)methyl]amino}methyl)phenyl]ethynyl}phenyl)-1-{3-[4-(trifluoromethyl)piperidin-1-yl]propyl}-1,4,6,7-tetrahydro-5H-pyrazolo[4,3-c]pyridin-5-yl]-2-oxoacetamide]	
	NC(=O)N1CCc2c(c(-c3ccc(Cl)c(C#Cc4ccc(CNCc5ccc(Cl)cc5)cc4)c3)nn2CCCN2CCCC2)C1 [Example 453, 3-(4-Chloro-3-{[4-({[(4-chlorophenyl)methyl]amino}methyl)phenyl]ethynyl}phenyl)-1-(3-pyrrolidin-1-ylpropyl)-1,4,6,7-tetrahydro-5H-pyrazolo[4,3-c]pyridine-5-carboxamide]	6.85
7.40	NC(=O)N1CCc2c(c(-c3ccc(Cl)c(C#Cc4ccc(CNCc5ccc(Cl)cc5)cc4)c3)nn2CCCN2CCN(c3cccc[n+]3[O-])CC2)C1 [Example 454, 3-(4-Chloro-3-{[4-({[(4-chlorophenyl)methyl]amino}methyl)phenyl]ethynyl}phenyl)-1-{3-[4-(1-oxidopyridin-2-yl)piperazin-1-yl]propyl}-1,4,6,7-tetrahydro-5H-pyrazolo[4,3-c]pyridine-5-carboxamide]	
7.40	NC(=O)N1CCc2c(c(-c3ccc(Cl)c(C#Cc4ccc(CNCc5ccc(Cl)cc5)cc4)c3)nn2CCCN2CCC(C(F)(F)F)CC2)C1 [Example 455, 3-(4-Chloro-3-{[4-({[(4-chlorophenyl)methyl]amino}methyl)phenyl]ethynyl}phenyl)-1-{3-[4-(trifluoromethyl)piperidin-1-yl]propyl}-1,4,6,7-tetrahydro-5H-pyrazolo[4,3-c]pyridine-5-carboxamide]	
	CS(=O)(=O)N1CCc2c(c(-c3ccc(Cl)c(C#Cc4ccc(CNCc5nccs5)cc4)c3)nn2CCCN2CCOCC2)C1 [Example 456, 1-[4-({2-Chloro-5-[5-(methylsulfonyl)-1-(3-morpholin-4-ylpropyl)-4,5,6,7-tetrahydro-1H-pyrazolo[4,3-c]pyridin-3-yl]phenyl}ethynyl)phenyl]-N-(1,3-thiazol-2-ylmethyl)methanamine]	6.92
	Cn1cncc1CNCc1ccc(C#Cc2cc(-c3nn(CCCN4CCOCC4)c4c3CN(S(C)(=O)=O)CC4)ccc2Cl)cc1 [Example 457, 1-[4-({2-Chloro-5-[5-(methylsulfonyl)-1-(3-morpholin-4-ylpropyl)-4,5,6,7-tetrahydro-1H-pyrazolo[4,3-c]pyridin-3-yl]phenyl}ethynyl)phenyl]-N-[(1-methyl-1H-imidazol-5-yl)methyl]methanamine]	7.05
7.22	NC(=O)N1CCc2c(c(-c3ccc(Cl)c(C#Cc4ccc(CNCc5ccc(Cl)cc5)cc4)c3)nn2CCCN2CCCCC2)C1 [Example 458, 3-(4-Chloro-3-{[4-({[(4-chlorophenyl)methyl]amino}methyl)phenyl]ethynyl}phenyl)-1-(3-piperidin-1-ylpropyl)-1,4,6,7-tetrahydro-5H-pyrazolo[4,3-c]pyridine-5-carboxamide]	
	CC(=O)NC1CCN(CCCn2nc(-c3ccc(Cl)c(C#Cc4ccc(CNCc5ccc(Cl)cc5)cc4)c3)c3c2CCN(C(N)=O)C3)CC1 [Example 459, 1-{3-[4-(Acetylamino)piperidin-1-yl]propyl}-3-(4-chloro-3-{[4-({[(4-chlorophenyl)methyl]amino}methyl)phenyl]ethynyl}phenyl)-1,4,6,7-tetrahydro-5H-pyrazolo[4,3-c]pyridine-5-carboxamide]	7.70
	NC(=O)N1CCc2c(c(-c3ccc(Cl)c(C#Cc4ccc(CNCc5ccc(Cl)cc5)cc4)c3)nn2CCCN2CCN(C3CCC3)CC2)C1 [Example 460, 3-(4-Chloro-3-{[4-({[(4-chlorophenyl)methyl]amino}methyl)phenyl]ethynyl}phenyl)-1-[3-(4-cyclobutylpiperazin-1-yl)propyl]-1,4,6,7-tetrahydro-5H-pyrazolo[4,3-c]pyridine-5-carboxamide]	6.77
